Measured values published in patent EP2601963B1, “N-ISOVALEROYL-L-GLUTAMYL-L-TRYPTOPHAN AS AN AGENT INHIBITING THE FORMATION OF ULCERS IN THE STOMACH AND THE DUODENUM” (Obshestvo S Ogranichennoj Otvetstvennostju "CytoNIR", priority 2010, dated 2015).

What was measured:
Assay type in all cases: in vivo, male Wistar rats
[1] = system: alkaline phosphatase (AP); experiment: Indomethacin-induced ulcer model, therapeutic: alkaline phosphatase activity in blood serum; settings: 200 mg/kg, treatment 5 days after Indomethacin
Method: (§1) Alanine aminotransferase (ALT) and alkaline phosphatase (AP) activity in blood serum was determined with "Vital Development Corporation" kits.
(§2) 2 ml/kg of the ulcerogenic dose of indomethacin equal to 30 mg/kg was administered intraperitoneally. The treatment started 24 hrs. post indomethacin administration and continued for 5 days. The animals in the experimental groups received N-isovaleroyl-L-glutamyl-L-tryptophan or the comparator drug Sucralfate, and the control group received distilled water.

malondialdehyde (MDA) [2] = experiment: Indomethacin-induced ulcer model, therapeutic: malondialdehyde in blood serum; settings: 200 mg/kg, treatment 5 days after Indomethacin
Method: (§3) Intensity of the free radical oxidation was evaluated by the malondialdehyde (MDA) accumulation in blood serum [R.A. Temirbulatov, Ye.I. Seleznev Method for Increasing the Intensity of Free Radical Oxidation in Lipid-Containing Blood Components and its Diagnostic Significance // Labor. Delo, 1981, # 4, p.p. 209 - 211]. The state of the antioxidant systems was evaluated by the superoxide dismutase (SODM) activity [S. Chevari , I. Chaba, Y. Sekei. The Role of Superoxide Dismutase in Cellular Oxidative Processes and Method of its Determination in Biological Materials // Labor. Delo, 1985, # 11, p.p. 678 - 681].
as §2

[3] = system: superoxide dismutase (SODM); experiment: Indomethacin-induced ulcer model, therapeutic: superoxide dismutase activity in blood serum; settings: 200 mg/kg, treatment 5 days after Indomethacin
Method: as §3, §2

[4] = Water-immersion stress model: weight of organs; settings: 200 mg/kg + stress
Method: (§4) Intensity of changes caused by stressors in the internal organs of the animals was evaluated by the relative weight changes of the adrenal glands, thymus, and spleen calculated as a ratio of the organ's weight to the body weight of the animal multiplied by 100.

[5] = Indomethacin-induced ulcer model, therapeutic: weight of organs; settings: 200 mg/kg, treatment 5 days after Indomethacin
Method: as §4, §2

[6] = system: Alanine aminotransferase (ALT); experiment: Indomethacin-induced ulcer model, therapeutic: alanine aminotransferase activity in blood serum; settings: 200 mg/kg, treatment 5 days after Indomethacin
Method: as §1, §2

[7] = system: Alanine aminotransferase (ALT); experiment: Water-immersion stress model: alanine aminotransferase activity in blood serum; settings: 200 mg/kg + stress
Method: as §1

malondialdehyde (MDA) [8] = experiment: Water-immersion stress model: malondialdehyde in blood serum; settings: 200 mg/kg + stress
Method: as §3

malondialdehyde (MDA) [9] = experiment: Indomethacin-induced ulcer model, preventive: malondialdehyde in blood serum; settings: 200 mg/kg + Indomethacin 20 mg/kg
Method: as §3
(§5) The efficacy of the course of preventive treatment with the claimed composition was evaluated 24 hrs. post indomethacin administration. The study was conducted as in Example 1.

[10] = system: superoxide dismutase (SODM); experiment: Indomethacin-induced ulcer model, preventive: superoxide dismutase activity in blood serum; settings: 200 mg/kg + Indomethacin 20 mg/kg
Method: as §3, §5

[11] = Indomethacin-induced ulcer model, preventive: weight of organs; settings: 200 mg/kg + Indomethacin 20 mg/kg
Method: as §4, §5

[12] = system: Alanine aminotransferase (ALT); experiment: Indomethacin-induced ulcer model, preventive: alanine aminotransferase activity in blood serum; settings: 200 mg/kg + Indomethacin 20 mg/kg
Method: as §1, §5

[13] = system: alkaline phosphatase (AP); experiment: Water-immersion stress model: alkaline phosphatase activity in blood serum; settings: 200 mg/kg + stress
Method: as §1

[14] = system: alkaline phosphatase (AP); experiment: Indomethacin-induced ulcer model, preventive: alkaline phosphatase activity in blood serum; settings: 200 mg/kg + Indomethacin 20 mg/kg
Method: as §1, §5

[15] = Indomethacin intoxication, therapeutic: changes in body weight; settings: 200 mg/kg; Indomethacin 30 mg/kg; Before Indomethacin = 100
Method: as §2
Some loss of weight of the intact animals could be contributed to the 18-hr fasting. […]

[16] = system: superoxide dismutase (SODM); experiment: Water-immersion stress model: superoxide dismutase activity in blood serum; settings: 200 mg/kg + stress
Method: as §3

## aluminum complex of beta-D-fructofuranosyl-alpha-D-glucopyranoside octakis (hydrosulfate) [Sucralfate]
[1]
  AP: 1260 ± 104 nM/c*L
Malondialdehyde (MDA) [2]
  MDA: 0.155 ± 0.037 OD532
[3]
  SODM: 2.66 ± 0.11 conv. units/ml
[4]
  Adrenal Glands Rel Wt.: 0.017 ± 0.001 %
  Adrenal Glands Wt.: 41.6 ± 2.7 mg
  Spleen Rel Wt.: 0.40 ± 0.02%
  Spleen Wt.: 0.974 ± 0.057 g
  Thymus Rel Wt.: 0.140 ± 0.007%
  Thymus Wt.: 0.327 ± 0.016 g
[5]
  Adrenal Glands Rel. wt.: 0.023± 0.002%
  Adrenal Glands Wt.: 50.1 ± 3.2
  Liver Rel. wt.: 3.23 ± 0.13%
  Liver Wt.: 7.158 ± 0.330 g
  Spleen Rel. wt.: 0.57 ± 0.04%
  Spleen Wt.: 1.260 ± 0.083 g
  Thymus Rel. wt.: 0.070 ± 0.005 %
  Thymus Wt.: 0.155 ± 0.011 g
[6]
  ALT: 0.69 ± 0.05 mM/h*L
[7]
  ALT: 1.57 ± 0.06 mM/hr-L
Malondialdehyde (MDA) [8]
  MDA: 0.147 ± 0.007 OD532
Malondialdehyde (MDA) [9]
  MDA: 0.134 ± 0.024 OD532
[10]
  SODM: 2.68 ± 0.14 con. units/ml
[11]
  Adrenal Glands Rel. wt.: 0.017 ± 0.001%
  Liver Rel. wt.: 3.259± 0.049%
  Liver Wt.: 7.702 ± 0.224 g
  Spleen Rel. wt.: 0.490 ± 0.020%
  Spleen Wt.: 1.070 ± 0.041 g
  Thymus Rel. wt.: 0.130 ± 0.009%
  Thymus Wt.: 0.306 ± 0.023 g
[12]
  ALT: 1.05 ± 0.05 mM/hr-L
[13]
  AP: 1113 ± 77 nM/s-L
[14]
  AP: 931 ± 108 nM/s-L
[15]
  Body weight In 5 days: 86.6 ± 2.5
[16]
  SODM: 2.32 ± 0.11 con. units/ml
